# Laboratory results published in US20260272797A1, “FRAGRANCE COMPOSITION” (GIVAUDAN SA, priority 2023, published 2026).
# Experiments:
# [1] = Gas-phase evaluation of each fragrance ingredient alone against model scalp malodour, MiniVAS device, panel of 5 experts; details: for Scalp MOC of ingredient alone: expert description
# Experimental: In a first set of experiments, the scalp malodour counteractancy of 173 fragrance ingredients was evaluated by panel of 5 experts.
# The evaluation was performed in the gas phase, using a MiniVAS™ device (ex Givaudan SA). This device is a regulating means that comprises a plurality of channels adapted to convey a gas (more particularly air) through cartridges, each cartridge containing a fragrance ingredient adsorbed onto an adsorbent. The air flows coming from the different cartridges are admixed and conveyed to the user's nose through a tubing fitted with an olfactometer funnel. Thus, by opening and closing channels and maintaining these opened and closed, respectively, for predetermined times, the regulating means can determine which fragrance ingredients and how much thereof are conveyed and when, and thus alter the nature of the fragrance perceived by the user. A description of the device can be found in WO2014154909A1, page 2, line 11 to page 4, line 7, and in H. R. Gygax et al. “Evolution of Real Time Aroma Creation at Givaudan”, poster presented at the 12th Weurman Flavour Research Symposium. July 2008. Interlaken, Switzerland; DOI: 10.13140/2.1.1924.0641.
# For the sake of the present evaluation, one cartridge contained the scalp malodour (in the form of a model malodour) and each fragrance ingredient was assigned to another cartridge. The malodour counteractancy of each fragrance ingredient was evaluated separately against the scalp malodour. A constant air flow rate of 50 ml/min was used for all measurements. The perceived malodour intensity, as well as the fragrance intensity, were ranked on a scale of 1-5 (1=barely noticeable, 2=weak, 3=medium, 4=strong and 5=very strong).
# [2] = Impact of fragrance ingredients on scalp malodour counteractancy of 80 fragrance compositions (Example 2 protocol, statistical presence); details: series of 80 fragrance compositions
# Experimental: In a second set of experiments, the impact of these fragrance ingredients on the scalp malodour counteractancy of a fragrance composition was assessed. The scalp malodour counteractancy of a series of 80 fragrance compositions was assessed by performing the evaluation protocol described in Example 2. […] Ingredients that were statistically more present in fragrances having a high malodour counteractancy were assigned a positive status, whereas ingredients that were statistically more present in compositions having a low malodour counteractancy were assigned a negative status.
# [3] = Table 3, air flow 50 ml/min, scale of 1-5 (1=barely noticeable, 5=very strong)
# [4] = Table 4, air flow 50 ml/min, scale of 1-5
Compound,"MO intensity [1, 3]",Impact on scalp MOC of fragrance composition ([2]; Table 3),"MO intensity [1, 4]",Impact on scalp MOC of fragrance composition ([2]; Table 4),"Scalp MOC of ingredient alone ([1]; Table 3, gas phase)","Scalp MOC of ingredient alone ([1]; Table 4, gas phase)"
CCCC1(C(C)(C)C)C=CC(C)O1 (stereo not shown) [5-tert-butyl-2-methyl-5-propyl-2H-furan],4,Positive,,,,
CC(C)(O)Cc1ccccc1 [2-methyl-1-phenylpropan-2-ol],,,1,Negative,,
Cc1occc(=O)c1O [3-hydroxy-2-methyl-4H-pyran-4-one],4,Positive,,,,
CCCC(=O)OC(C)(C)Cc1ccccc1 [2-methyl-1-phenylpropan-2-yl butanoate],,,3,Negative,,
CCCCCCC(=O)OCC [ethyl heptanoate],1,Positive,,,No effect,
"C=CC(C)(O)CC/C=C(\C)CCC=C(C)C (stereo not shown) [(E)-3,7,11-trimethyldodeca-1,6,10-trien-3-ol]",1,Positive,,,No effect,
CC(=O)c1ccccc1 [1-phenylethanone],5,Positive,,,,
CC(=O)OCc1ccccc1 [benzyl acetate],,,0,Negative,,Enhances MO
"CC(=O)C1CC/C=C\C(C)C(C)/C=C\C/C=C/1C (stereo not shown) [1-((2E,5Z,9Z)-2,7,8-trimethylcyclododeca-2,5,9-trien-1-yl)ethanone]",1,Positive,,,No effect,
"CC1(C)CCC[C@]2(C)[C@H]3CCO[C@]3(C)CC[C@@H]12 [(3aR,5aS,9aS,9bR)-3a,6,6,9a-tetramethyl-2,4,5,5a,7,8,9,9b-octahydro-1H-benzo[e][1]benzofuran]",1,Positive,,,No effect,
CCCCCCC#CC(=O)OC [methyl non-2-ynoate],1.8,Positive,,,,
CC(C)C(=O)OCCOc1ccccc1 [2-(phenoxy)ethyl 2-methylpropanoate],,,2.3,Negative,,
mercapto-para-menthan-3-one,1,Positive,,,No effect,
CC(C)c1ccc(CO)cc1 [(4-isopropylphenyl)methanol],2,Positive,,,,
COC(=O)c1ccccc1N [methyl 2-aminobenzoate],4.3,Positive,,,,
"C/C(=C\CCC=O)CCCC(C)(C)O [(4E)-9-hydroxy-5,9-dimethyl-4-decenal]",1,Positive,,,No effect,
"C/C=C/C(=O)C1=C(C)C=CCC1(C)C [(E)-1-(2,6,6-trimethylcyclohexa-1,3-dien-1-yl)but-2-en-1-one]",2.8,Positive,,,,
CCCC1CCCC(=O)O1 (stereo not shown) [6-propyltetrahydro-2H-pyran-2-one],,,3.8,Negative,,
"CCC(C)(O)CCCC(C)C (stereo not shown) [3,7-dimethyloctan-3-ol]",,,3,Negative,,
CCCCCC/C(C=O)=C\c1ccccc1 [(E)-2-benzylideneoctanal],,,1.2,Negative,,
O=C1CCC/C=C\CCCCCCCCCC1 [(Z)-cyclohexadec-5-enone],,,1,Negative,,Enhances MO

Compound,"MO intensity [1, 3]",Impact on scalp MOC of fragrance composition ([2]; Table 3),"MO intensity [1, 4]",Impact on scalp MOC of fragrance composition ([2]; Table 4),"Scalp MOC of ingredient alone ([1]; Table 3, gas phase)","Scalp MOC of ingredient alone ([1]; Table 4, gas phase)"
OCCc1ccccc1 [2-phenylethanol],,,3.2,Negative,,
"CC1=CC[C@H]2C(C1)C1CC2[C@@]2(C1)OC2C (stereo partly drawn) [(2R,8aS)-3′,6-dimethyl-3,4,4a,5,8,8a-hexahydro-1H-spiro[1,4-methanonaphthalene-2,2′-oxirane]]",1,Positive,,,No effect,
CC1C/C=C\CCCCCCCCCC(=O)C1 (stereo not shown) [(Z)-3-methylcyclopentadec-5-enone],2.1,Positive,,,,
CCCCCCC1CCC(=O)O1 (stereo not shown) [5-hexyloxolan-2-one],3,Positive,,,,
"CC(C)=CCCC(C)CC=O (stereo not shown) [3,7-dimethyloct-6-enal]",3,Positive,,,,
"CC(=O)CCC1=C(C)CCCC1(C)C [4-(2,6,6-trimethylcyclohex-1-en-1-yl)butan-2-one]",,,1,Negative,,
CCCCOC(=O)C(C)OC(=O)CCC (stereo not shown) [1-butoxy-1-oxopropan-2-yl butanoate],1,Positive,,,No effect,
"CC(C)CCc1ccc2c(c1)OCC(=O)CO2 [7-isopentyl-2H-benzo[b][1,4]dioxepin-3(4H)-one]",4.5,Positive,,,,
C=CCc1ccc(OC(C)=O)c(OC)c1 [4-allyl-2-methoxyphenyl acetate],,,1,Negative,,
CCCCC1CCC(=O)O1 (stereo not shown) [5-butyloxolan-2-one],,,3.8,Negative,,
"CC1CC(C)(c2ccccc2)OC(C)O1 (stereo not shown) [2,4,6-trimethyl-4-phenyl-1,3-dioxane]",,,1,Negative,,
C=CCc1ccc(O)c(OC)c1 [4-allyl-2-methoxyphenol],4,Positive,,,,
CC1C/C=C/CCCCCCCC(=O)OCC1 (stereo not shown) [(E)-13-methyloxacyclopentadec-10-en-2-one],2,Positive,,,,
"C[C@@H]1CC[C@H]2C(C)(C)[C@H]3C[C@@]12CC1OC(C)(C)OC13C (stereo partly drawn) [(4aR,5R,7aS,9R)-Octahydro-2,2,5,8,8,9a-hexamethyl-4H-4a,9-methanoazuleno[5,6-d]-1,3-dioxole]",4,Positive,,,,
"CC(=O)OC/C=C(/C)CCC=C(C)C [(Z)-3,7-dimethylocta-2,6-dien-1-yl acetate]",,,1,Negative,,
CC1CCC(C(C)C)C(O)C1 (stereo not shown) [2-isopropyl-5-methylcyclohexanol],1.2,Positive,,,,
"CCCC1CCOC(C)S1 (stereo not shown) [2-methyl-4-propyl-1,3-oxathiane]",,,1,Negative,,
CC(=O)C(C)O (stereo not shown) [3-hydroxybutan-2-one],4,Positive,,,,
N#CC(=C1CCCCC1)c1ccccc1 [2-cyclohexylidene-2-phenylacetonitrile],,,1,Negative,,
Cc1cc(CC(C)C)ccc1CCC=O [3-(4-(2-methylpropyl)-2-methylphenyl)propanal],2.8,Positive,,,,
"OCC1COC(Cc2ccccc2)O1 (stereo not shown) [(2-benzyl-1,3-dioxolan-4-yl)methanol]",,,1,Negative,,
